{"source": "ChEMBL document CHEMBL1156743", "about": "“Design, synthesis, and biological evaluations of 2,5-diaryl-2,3-dihydro-1,3,4-oxadiazoline analogs of combretastatin-A4” (J Med Chem, 2010)", "key": {"L1210": {"tested_on": "L1210", "assay": "Antiproliferative activity against mouse L1210 cells after 72 hrs by MTT assay", "format": "functional, cell-based", "conditions": "L1210, 72 h"}, "A10 [1]": {"tested_on": "A10", "assay": "Antiproliferative activity against rat A10 cells assessed as microtubule depolymerization after 18 to 24 hrs by indirect immunofluorescence technique", "format": "functional, cell-based"}, "[2]": {"assay": "Relative aqueous solubility at pH 7.4 by filter plate assay", "format": "physicochemical", "conditions": "buffer"}, "[3]": {"assay": "Antiproliferative activity against mouse B16F0 cells after 72 hrs by MTT assay", "format": "functional"}, "MDA-MB-435 [4]": {"tested_on": "MDA-MB-435", "assay": "Antiproliferative activity against human MDA-MB-435 cells after 48 hrs by SRB assay", "format": "functional, cell-based", "conditions": "MDA-MB-435, 48 h"}, "MDA-MB-435 [5]": {"tested_on": "MDA-MB-435", "assay": "Ratio of EC50 for rat A10 cells to IC50 for human MDA-MB-435 cells", "format": "functional"}, "HeLa [6]": {"tested_on": "HeLa", "assay": "Antimitotic activity in human HeLa cells assessed as effect on DNA at 0.5 uM after 18 hrs by indirect immunofluorescence technique", "format": "functional, cell-based"}, "A10 [7]": {"tested_on": "A10", "assay": "Antiproliferative activity against rat A10 cells assessed as microtubule depolymerization at 1 uM after 18 hrs by indirect immunofluorescence technique", "format": "functional, cell-based"}, "SK-OV-3 [8]": {"tested_on": "SK-OV-3", "assay": "Antiproliferative activity against human SKOV3 cells expressing adenoviral MDR1 after 48 hrs by SRB assay", "format": "functional, cell-based", "conditions": "SK-OV-3, 48 h"}, "HeLa [9]": {"tested_on": "HeLa", "assay": "Antimitotic activity in human HeLa cells assessed as gamma-tubulin containing centrosomes at 0.5 uM after 18 hrs by indirect immunofluorescence technique", "format": "functional, cell-based"}, "MDA-MB-435 [10]": {"tested_on": "MDA-MB-435", "assay": "Cell cycle arrest in human MDA-MB-435 cells assessed as accumulation at G2/M phase at 0.5 uM after 18 hrs by flow cytometry", "format": "functional, cell-based"}, "HeLa [11]": {"tested_on": "HeLa", "assay": "Antimitotic activity in human HeLa cells assessed as multipolar mitotic spindles at 0.5 uM after 18 hrs by indirect immunofluorescence technique", "format": "functional, cell-based"}, "HeLa [12]": {"tested_on": "HeLa", "assay": "Antiproliferative activity against human HeLa cells expressing wild type beta3 tubulin after 48 hrs by SRB assay", "format": "functional, cell-based"}, "SK-OV-3 [13]": {"tested_on": "SK-OV-3", "assay": "Antiproliferative activity against human SKOV3 cells after 48 hrs by SRB assay", "format": "functional, cell-based", "conditions": "SK-OV-3, 48 h"}, "HeLa [14]": {"tested_on": "HeLa", "assay": "cells", "conditions": "Homo sapiens, 48 h", "description": "Antiproliferative activity against human HeLa cells after 48 hrs by SRB assay"}}, "note": "pEC50, pIC50: −log10 of the molar value. Active and inactive are the calls of the source. The rule behind the calls is not given here."}
{"smiles": "COc1ccc(C2OC(c3cc(OC)c(OC)c(OC)c3)=NN2C(C)=O)cc1", "note": "(stereo unspecified)", "values": [{"measurement": "pIC50", "setting": "L1210", "result": 4.24}]}
{"smiles": "COc1ccc(/C=C\\c2cc(OC)c(OC)c(OC)c2)cc1O", "note": "[COMBRETASTATIN A4]", "values": [{"measurement": "pEC50", "setting": "A10 [1]", "result": 8.15}, {"measurement": "solubility", "setting": "[2]", "result": 350, "unit": "µM"}, {"measurement": "Activity", "setting": "[3]", "result": 0.003, "unit": "µM"}]}
{"smiles": "COc1ccc(C2=NN(C(C)=O)C(c3ccc([N+](=O)[O-])cc3)O2)cc1", "note": "(stereo unspecified)", "values": [{"measurement": "pIC50", "setting": "L1210", "result": 4.17}]}
{"smiles": "COc1ccc(C2=NN(C(C)=O)C(c3ccccc3)O2)cc1", "note": "(stereo unspecified)", "values": [{"measurement": "pIC50", "setting": "L1210", "result": "< 4.00"}]}
{"smiles": "COc1cc(C2=NN(C(C)=O)C(c3ccccc3)O2)cc(OC)c1OC", "note": "(stereo unspecified)", "values": [{"measurement": "pIC50", "setting": "L1210", "result": 5.19}]}
{"smiles": "COc1cc(C2=NN(C(C)=O)C(c3cccc([N+](=O)[O-])c3)O2)cc(OC)c1OC", "note": "(stereo unspecified)", "values": [{"measurement": "pIC50", "setting": "L1210", "result": 4.41}]}
{"smiles": "COc1ccc(C2OC(c3cc(OC)c(OC)c(OC)c3)=NN2C(C)=O)cc1OC(C)=O", "note": "(stereo unspecified)", "values": [{"measurement": "pEC50", "setting": "A10 [1]", "result": 4.99}, {"measurement": "pIC50", "setting": "L1210", "result": 5.41}, {"measurement": "solubility", "setting": "[2]", "result": 112, "unit": "µM"}, {"measurement": "pIC50", "setting": "MDA-MB-435 [4]", "result": 5.48}, {"measurement": "Ratio", "setting": "MDA-MB-435 [5]", "result": 3.1}]}
{"smiles": "COc1ccc(C2=NN(C(C)=O)C(c3ccc(OC)c(OC(C)=O)c3)O2)cc1", "note": "(stereo unspecified)", "values": [{"measurement": "pIC50", "setting": "L1210", "result": "< 4.00"}]}
{"smiles": "COc1ccc(C2OC(c3cc(OC)c(OC)c(OC)c3)=NN2C(C)=O)cc1[N+](=O)[O-]", "note": "(stereo unspecified)", "values": [{"measurement": "pIC50", "setting": "L1210", "result": 4.24}]}
{"smiles": "COc1ccc(C2=NN(C(C)=O)C(c3cc(OC)ccc3OC)O2)cc1", "note": "(stereo unspecified)", "values": [{"measurement": "pEC50", "setting": "A10 [1]", "result": 5.89}, {"measurement": "pIC50", "setting": "L1210", "result": 6.30}, {"measurement": "solubility", "setting": "[2]", "result": 259, "unit": "µM"}, {"measurement": "pIC50", "setting": "MDA-MB-435 [4]", "result": 6.70}, {"measurement": "Ratio", "setting": "MDA-MB-435 [5]", "result": 6.5}]}
{"smiles": "COc1cc(C2=NN(C(C)=O)C(c3cc(OC)c(OC)c(OC)c3)O2)cc(OC)c1OC", "note": "(stereo unspecified)", "values": [{"measurement": "pIC50", "setting": "L1210", "result": "< 4.00"}]}
{"smiles": "COc1ccccc1C1OC(c2cc(OC)c(OC)c(OC)c2)=NN1C(C)=O", "note": "(stereo unspecified)", "values": [{"measurement": "pIC50", "setting": "L1210", "result": 4.32}]}
{"smiles": "COc1ccc(C2=NN(C(C)=O)C(c3cc(OC)c(OC)c(OC)c3)O2)cc1", "note": "(stereo unspecified)", "values": [{"measurement": "Activity", "setting": "HeLa [6]", "result": "Active"}, {"measurement": "Activity", "setting": "A10 [7]", "result": "Active"}, {"measurement": "pIC50", "setting": "SK-OV-3 [8]", "result": 6.35}, {"measurement": "pEC50", "setting": "A10 [1]", "result": 6.30}, {"measurement": "pIC50", "setting": "L1210", "result": 6.30}, {"measurement": "Activity", "setting": "HeLa [9]", "result": "Active"}, {"measurement": "solubility", "setting": "[2]", "result": 257, "unit": "µM"}, {"measurement": "Activity", "setting": "MDA-MB-435 [10]", "result": "Active"}, {"measurement": "Activity", "setting": "HeLa [11]", "result": "Active"}, {"measurement": "pIC50", "setting": "HeLa [12]", "result": 6.57}, {"measurement": "pIC50", "setting": "MDA-MB-435 [4]", "result": 6.85}, {"measurement": "pIC50", "setting": "SK-OV-3 [13]", "result": 6.47}, {"measurement": "pIC50", "setting": "HeLa [14]", "result": 6.64}, {"measurement": "Ratio", "setting": "MDA-MB-435 [5]", "result": 3.6}]}
{"smiles": "COc1ccc(C2=NN(C(C)=O)C(c3cc(OC)cc(OC)c3)O2)cc1", "note": "(stereo unspecified)", "values": [{"measurement": "pEC50", "setting": "A10 [1]", "result": 6.00}, {"measurement": "pIC50", "setting": "L1210", "result": 6.30}, {"measurement": "solubility", "setting": "[2]", "result": 94, "unit": "µM"}, {"measurement": "pIC50", "setting": "MDA-MB-435 [4]", "result": 6.96}, {"measurement": "Ratio", "setting": "MDA-MB-435 [5]", "result": 9.1}]}
{"smiles": "COc1ccc(C2=NN(C(C)=O)C(c3cccc([N+](=O)[O-])c3)O2)cc1", "note": "(stereo unspecified)", "values": [{"measurement": "pIC50", "setting": "L1210", "result": 4.33}]}
{"smiles": "COc1ccc(C2=NN(C(C)=O)C(c3cccc(OC)c3)O2)cc1", "note": "(stereo unspecified)", "values": [{"measurement": "pIC50", "setting": "L1210", "result": 4.39}]}
{"smiles": "COc1cccc(C2OC(c3cc(OC)c(OC)c(OC)c3)=NN2C(C)=O)c1", "note": "(stereo unspecified)", "values": [{"measurement": "pIC50", "setting": "L1210", "result": 4.35}]}
{"smiles": "COc1ccc(OC)c(C2OC(c3cc(OC)c(OC)c(OC)c3)=NN2C(C)=O)c1", "note": "(stereo unspecified)", "values": [{"measurement": "pIC50", "setting": "L1210", "result": 4.26}]}
{"smiles": "COc1ccc(C2=NN(C(C)=O)C(c3ccc(OC)cc3)O2)cc1", "note": "(stereo unspecified)", "values": [{"measurement": "pIC50", "setting": "L1210", "result": "< 4.00"}]}
{"smiles": "COc1ccc(C2=NN(C(C)=O)C(c3ccccc3OC)O2)cc1", "note": "(stereo unspecified)", "values": [{"measurement": "pIC50", "setting": "L1210", "result": 5.24}]}
{"smiles": "COc1ccc(C2=NN(C(C)=O)C(c3cccc(Br)c3)O2)cc1", "note": "(stereo unspecified)", "values": [{"measurement": "pIC50", "setting": "L1210", "result": 4.43}]}
{"smiles": "COc1cc(C2=NN(C(C)=O)C(c3cccc(Br)c3)O2)cc(OC)c1OC", "note": "(stereo unspecified)", "values": [{"measurement": "pEC50", "setting": "A10 [1]", "result": 5.82}, {"measurement": "pIC50", "setting": "L1210", "result": 6.22}, {"measurement": "solubility", "setting": "[2]", "result": 66, "unit": "µM"}, {"measurement": "pIC50", "setting": "MDA-MB-435 [4]", "result": 6.82}, {"measurement": "Ratio", "setting": "MDA-MB-435 [5]", "result": 10}]}
{"smiles": "COc1ccc(C2=NN(C(C)=O)C(c3ccc(OC)c([N+](=O)[O-])c3)O2)cc1", "note": "(stereo unspecified)", "values": [{"measurement": "pIC50", "setting": "L1210", "result": "< 4.00"}]}
{"smiles": "COc1cc(C2=NN(C(C)=O)C(c3ccc([N+](=O)[O-])cc3)O2)cc(OC)c1OC", "note": "(stereo unspecified)", "values": [{"measurement": "pIC50", "setting": "L1210", "result": 5.38}]}
{"smiles": "COc1cc(OC)cc(C2OC(c3cc(OC)c(OC)c(OC)c3)=NN2C(C)=O)c1", "note": "(stereo unspecified)", "values": [{"measurement": "pIC50", "setting": "L1210", "result": 5.23}]}
